Data: patent US10689354B2, “Aminoazole derivative” (Teijin Pharma Limited, priority 2015, dated 2020)

Legend:
[1] = molecular target: T1, androgen receptor (AR-LBD) (Rattus norvegicus, UniProt P15207); experiment: Evaluation of androgen receptor affinity (PolarScreen Androgen Receptor Competitor Assay Kit, Red; fluorescence polarization); settings: 22° C. for 5 hours, relative to binding rate of 1 μM DHT, read-out: AR affinity (pEC50) (converted)
T1 construct: 5 μL of 2×AR-LBD/Fluoromone AL Red Complex contained in the kit; purchased Invitrogen
T1 sequence (P15207 651-882 limits assumed): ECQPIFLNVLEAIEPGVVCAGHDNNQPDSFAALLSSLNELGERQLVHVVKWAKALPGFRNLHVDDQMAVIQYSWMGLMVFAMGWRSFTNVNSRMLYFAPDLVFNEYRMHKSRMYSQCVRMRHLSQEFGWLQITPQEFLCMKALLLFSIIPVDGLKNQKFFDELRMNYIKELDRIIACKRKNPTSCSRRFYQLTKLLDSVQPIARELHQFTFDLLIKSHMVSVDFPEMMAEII
Summary of the method: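 FP competition: compound + AR-LBD/Fluoromone AL Red tracer complex, 22° C, 5 h. Reference 1 μM DHT binding rate; pEC50 by 4-parameter fit.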

[2] = molecular target: T2, human androgen receptor (Homo sapiens, UniProt P10275); experiment: Reporter assay of an androgen receptor responsive sequence (luciferase, transiently transfected HEK293 cells); assay type: cell-based; settings: 24 hours incubation, relative to activity of 100 nM DHT, read-out: AR transcriptive activity (pEC50) (converted)
T2 construct: expressed in transfected cells; host or cells: HEK293
T2 sequence (P10275 1-920): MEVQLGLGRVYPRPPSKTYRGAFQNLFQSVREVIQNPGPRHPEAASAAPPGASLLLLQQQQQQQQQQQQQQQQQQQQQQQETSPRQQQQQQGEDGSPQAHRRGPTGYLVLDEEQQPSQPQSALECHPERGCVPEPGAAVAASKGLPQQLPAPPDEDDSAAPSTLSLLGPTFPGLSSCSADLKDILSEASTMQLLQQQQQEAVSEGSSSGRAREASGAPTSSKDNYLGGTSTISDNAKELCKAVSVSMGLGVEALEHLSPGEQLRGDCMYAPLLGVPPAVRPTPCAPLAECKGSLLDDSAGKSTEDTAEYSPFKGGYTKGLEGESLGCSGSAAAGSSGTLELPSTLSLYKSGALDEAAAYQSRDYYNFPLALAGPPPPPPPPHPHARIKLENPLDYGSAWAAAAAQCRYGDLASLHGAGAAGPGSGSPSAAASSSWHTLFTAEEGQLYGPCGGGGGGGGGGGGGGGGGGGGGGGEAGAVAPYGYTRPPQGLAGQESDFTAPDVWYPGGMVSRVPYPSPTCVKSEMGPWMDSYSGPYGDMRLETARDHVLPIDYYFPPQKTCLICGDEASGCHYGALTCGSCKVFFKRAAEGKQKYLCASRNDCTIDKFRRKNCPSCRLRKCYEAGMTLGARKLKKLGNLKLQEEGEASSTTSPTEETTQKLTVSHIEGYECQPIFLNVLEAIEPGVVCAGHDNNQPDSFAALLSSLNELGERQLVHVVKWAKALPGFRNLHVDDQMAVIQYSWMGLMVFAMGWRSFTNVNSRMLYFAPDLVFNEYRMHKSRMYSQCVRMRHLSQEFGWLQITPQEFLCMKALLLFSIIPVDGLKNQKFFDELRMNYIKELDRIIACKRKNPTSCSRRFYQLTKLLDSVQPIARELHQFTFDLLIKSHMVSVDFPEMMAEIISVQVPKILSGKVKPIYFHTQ
Experimental: Reporter Assay of an Androgen Receptor Responsive Sequence
To examine the agonist activity of compounds for androgen, a reporter assay using an androgen receptor responsive sequence was conducted.
Using Lipofectamine 2000 (Invitrogen), a plasmid mixture (pGL4-ARE (200 ng/well), pcDNA3-hAR (20 ng/well), pRL-TK (Promega) (150 ng/well)) was transiently transfected into HEK293 cells. The contents of the plasmid (mixture) are as follows:
pGL4-ARE is a reporter plasmid containing firefly luciferase sequence under the control of androgen receptor responsive sequence; pcDNA3-hAR is a plasmid containing full-length sequence of human androgen receptor under the constant control of CMV promoter; pRL-TK is a plasmid containing Renilla Luciferase sequence under the control of herpes simplex virus thymidine kinase and used as an internal standard for evaluations of transfection efficiency and compound toxicity.
After the incubation of Lipofectamine 2000 and the plasmid mixture in Opti-MEM for 20 minutes, the mixture was mixed with a cell suspension prepared with Opti-MEM in the similar way, and the cell suspension was plated to a 96-well plate at 20000 cells/well. The transfection was conducted by incubating the plates under the condition of 5% CO2 at 37° C. for 3 hours. Three hours after the transfection, the culture medium was removed and a compound solution prepared by DMEM supplemented with 5% FBS and treated with charcoal was added, and the mixture was incubated under the condition of 5% CO2 at 37° C. for 24 hours. After the incubation with the compound, luciferase activities were measured with a luminometer using Dual-Glo™ Luciferase Assay System (Promega). The measurement of the luciferase activities was performed in accordance with the protocol recommended by Promega. The activity of the compound was determined by comparing to the activity of 100 nM of DHT, and quantified the logarithm value (pEC50) of reciprocal value of the effective concentration of the compound which is equal to 50% of the activity value by applying a 4 parameter goodness-of-fit calculation.

Structure (SMILES)	EC50 [1]	EC50 [2]
Cc1sc(N(Cc2ccc3occc3c2)c2ccc(C#N)cc2)nc1C(=O)NS(C)(=O)=O [Compound 26, 2-[N-(benzofuran-5-ylmethyl)-4-cyano-anilino]-5-methyl-N-methylsulfonyl-thiazole-4-carboxamide]	63.1 nM	25.1 nM
Cc1sc(N(CCc2ccc(Cl)cc2)Cc2ccc(Cl)cc2)nc1C(=O)NS(=O)(=O)C1CC1 [Compound 694, 2-[2-(4-chlorophenyl)ethyl-[(4-chlorophenyl)methyl]amino]-N-cyclopropylsulfonyl-5-methyl-thiazole-4-carboxamide]	63.1 nM	3160 nM
Cc1sc(N(Cc2cnc(C(F)(F)F)c(Cl)c2)c2ccc(C#N)cc2)nc1C(=O)NS(C)(=O)=O [Compound 530, 2-[N-[[5-chloro-6-(trifluoromethyl)-3-pyridyl]methyl]-4-cyano-anilino]-5-methyl-N-methylsulfonyl-thiazole-4-carboxamide]	50.1 nM	501 nM
Cc1sc(N(Cc2cccc(N(C)C)c2)c2ccc(C#N)cc2)nc1C(=O)NS(C)(=O)=O [Example 215, 2-[4-cyano-N-[[3-(dimethylamino)phenyl]methyl]anilino]-5-methyl-N-methylsulfonyl-thiazole-4-carboxamide]	50.1 nM	200 nM
Cc1sc(N(Cc2ccccc2)c2ccc(C#N)c(C(F)(F)F)c2)nc1C(=O)NS(C)(=O)=O [Compound 451, 2-[N-benzyl-4-cyano-3-(trifluoromethyl)anilino]-5-methyl-N-methylsulfonyl-thiazole-4-carboxamide]	25.1 nM	50.1 nM
Cc1cccc(CN(c2ccc(C#N)cc2)c2nc(C(=O)NS(C)(=O)=O)c(C)s2)c1 [Compound 16, 2-[4-cyano-N-(m-tolylmethyl)anilino]-5-methyl-N-methylsulfonyl-thiazole-4-carboxamide]	25.1 nM	31.6 nM
CS(=O)(=O)NC(=O)c1nc(N(Cc2ccc(OC(F)(F)F)cc2)c2ccc(C#N)cc2)sc1Br [Example 253, 5-bromo-2-[4-cyano-N-[[4-(trifluoromethoxy)phenyl]methyl]anilino]-N-methylsulfonyl-thiazole-4-carboxamide]	31.6 nM	79.4 nM
Cc1sc(N(Cc2ccc3nonc3c2)c2ccc(C#N)cc2)nc1C(=O)NS(C)(=O)=O [Compound 361, 2-[N-(2,1,3-benzoxadiazol-5-ylmethyl)-4-cyano-anilino]-5-methyl-N-methylsulfonyl-thiazole-4-carboxamide]	39.8 nM	631 nM
Cc1sc(N(Cc2csc(C(F)(F)F)n2)c2ccc(C#N)cc2)nc1C(=O)NS(C)(=O)=O [Compound 2, 2-[4-cyano-N-[[2-(trifluoromethyl)thiazol-4-yl]methyl]anilino]-5-methyl-N-methylsulfonyl-thiazole-4-carboxamide]	100 nM	100 nM
CS(=O)(=O)NC(=O)c1nc(N(Cc2ccccc2)c2ccc(C#N)cc2)sc1C(F)(F)F [Example 230, 2-(N-benzyl-4-cyano-anilino)-N-methylsulfonyl-5-(trifluoromethyl)thiazole-4-carboxamide]	126 nM	1260 nM
Cc1sc(N(Cc2ccc(F)c(F)c2)c2ccc(C#N)cc2)nc1C(=O)NS(C)(=O)=O [Compound 97, 2-[4-cyano-N-[(3,4-difluorophenyl)methyl]anilino]-5-methyl-N-methylsulfonyl-thiazole-4-carboxamide]	50.1 nM	31.6 nM
CCS(=O)(=O)NC(=O)c1nc(N(CCC2CCCCC2)Cc2ccc(Cl)cc2)sc1C [Compound 729, 2-[(4-chlorophenyl)methyl-(2-cyclohexylethyl)amino]-N-ethylsulfonyl-5-methyl-thiazole-4-carboxamide]	126 nM	5010 nM
Cc1sc(N(Cc2cc(C(F)(F)F)ccn2)c2ccc(C#N)cc2)nc1C(=O)NS(C)(=O)=O [Example 186, 2-[4-cyano-N-[[4-(trifluoromethyl)-2-pyridyl]methyl]anilino]-5-methyl-N-methylsulfonyl-thiazole-4-carboxamide]	200 nM	631 nM
CS(=O)(=O)NC(=O)c1nc(N(Cc2ccc(Cl)c(Cl)c2)c2ccc(C#N)cc2)oc1C1CC1 [Compound 647, 2-[4-cyano-N-[(3,4-dichlorophenyl)methyl]anilino]-5-cyclopropyl-N-methylsulfonyl-oxazole-4-carboxamide]	25.1 nM	> 10000 nM
Cc1sc(N(Cc2ccccc2)c2ccc(Cl)c(Cl)c2)nc1C(=O)NS(C)(=O)=O [Compound 37, 2-(N-benzyl-3,4-dichloro-anilino)-5-methyl-N-methylsulfonyl-thiazole-4-carboxamide]	50.1 nM	1260 nM
Cc1sc(N(CCc2ccc(Cl)cc2)CC2CCCCC2)nc1C(=O)NS(=O)(=O)Cc1cccnc1 [Compound 699, 2-[2-(4-chlorophenyl)ethyl-(cyclohexylmethyl)amino]-5-methyl-N-(3-pyridylmethylsulfonyl)thiazole-4-carboxamide]	63.1 nM	> 10000 nM
Cc1oc(N(Cc2ccc(OC(F)(F)F)cc2)c2ccc(C#N)cc2)nc1C(=O)NS(C)(=O)=O [Compound 607, 2-[4-cyano-N-[[4-(trifluoromethoxy)phenyl]methyl]anilino]-5-methyl-N-methylsulfonyl-oxazole-4-carboxamide]	39.8 nM	5010 nM
Cc1sc(N(Cc2ccc(F)cc2)c2ccc(C(F)(F)F)nc2)nc1C(=O)NS(C)(=O)=O [Compound 469, 2-[(4-fluorophenyl)methyl-[6-(trifluoromethyl)-3-pyridyl]amino]-5-methyl-N-methylsulfonyl-thiazole-4-carboxamide]	158 nM	316 nM
Cc1sc(N(CC[C@H]2CC[C@@H](O)C2)c2ccc(C#N)cc2)nc1C(=O)NS(C)(=O)=O (racemic) [Compound 436, 2-[4-cyano-N-[2-[cis-3-hydroxycyclopentyl]ethyl]anilino]-5-methyl-N-methylsulfonyl-thiazole-4-carboxamide]	501 nM	1580 nM
Cc1sc(N(CCc2cccnc2)Cc2ccccc2)nc1C(=O)NS(C)(=O)=O [Compound 147, 2-[benzyl-[2-(3-pyridyl)ethyl]amino]-5-methyl-N-methylsulfonyl-thiazole-4-carboxamide]	> 2000 nM	> 10000 nM
Cc1sc(N(Cc2cccc(-n3ccnc3)c2)c2ccc(C#N)cc2)nc1C(=O)NS(C)(=O)=O [Example 218, 2-[4-cyano-N-[(3-imidazol-1-ylphenyl)methyl]anilino]-5-methyl-N-methylsulfonyl-thiazole-4-carboxamide]	251 nM	> 10000 nM
